These results are taken from publication PMC7504721, “Targeting the Initiator Protease of the Classical Pathway of Complement Using Fragment-Based Drug Discovery” (Molecules, 2020).

In this test the test system is lectin pathway. As to the kind of experiment: Lectin pathway-specific ELISA (mannan, C1q-depleted serum, C4b detection). It counts as biochemical, human. To be noted: single dose 500 µM, triplicate, 2% C1q-depleted serum. On the procedure: Figure 5 Selectivity and mechanistic analysis of CMP-1611 and CMP-1696. (A) Chemical structure of CMP-1611. (B) Chemical structure of CMP-1696. (C) Dose-dependent inhibition by CMP-1611 and CMP-1696 in a classical pathway-specific ELISA. Data were fit with GraphPad Prism using non-linear regression with a log(inhibitor) vs. response model. […] (D) Complement pathway selectivity of CMP-1611 and CMP-1696. Compounds were assessed for their ability to inhibit activation of complement via the lectin and alternative pathways using single doses of 500 µM compound in triplicate. To ensure only lectin pathway activation, 2% (v/v) C1q-depleted serum (CompTech) was used and mannan was used as the activator. To match serum sources and amounts for this assay, the classical pathway assays were repeated here using serum from CompTech at 2% (v/v) final concentration. Alternative pathway activation assays were performed using 20% (v/v) serum (CompTech), alternative pathway buffers, and C3b detection (see Methods and Materials for details). […]
To carry out classical pathway ELISA-based inhibition assays, IgM was dissolved in coating buffer (100 mM Na2CO3/NaHCO3, pH 9.6) to a final concentration of 3 µg/mL and was dispensed into 96-well plates at 100 µL per well. […] The reaction was stopped with 50 µL of 0.16 M sulfuric acid, and the plate was read at 450 nm using an EnSight multimode plate reader (Perkin-Elmer). […]
Background: In an ELISA, binding on a coated surface is turned into a signal by an enzyme label.

As to `CN(C)c1cc(N2CCCC(N)C2)ncn1` (centres unmarked) [CMP-1611], the “inhibition of lectin pathway activation” value is “no effect”. The same measure for `COCc1nc(-c2ccc(OC3CNC3)cc2)no1` [CMP-1696]: “blocked”.
